Data: ChEMBL document CHEMBL1140078 (J Med Chem, 2008)

Legend:
[1] = molecular target: Phosphatidylinositol 4,5-bisphosphate 3-kinase catalytic subunit alpha isoform (Homo sapiens, UniProt P42336)
Description: Inhibition of human recombinant PI3K p110alpha expressed in Sf9 cells coexpressing p85alpha by radiometric scintillation proximity assay

[2] = in vitro; settings: human, liver microsomes
Description: Metabolic stability in human liver microsomes at 10 uM after 30 mins

[3] = in vivo; settings: CD1, mouse, po, 10 mg/kg
[4] = in vitro; settings: CD1, mouse, liver microsomes
Description: Metabolic stability in CD1 mouse liver microsomes at 10 uM after 30 mins

[5] = Aqueous solubility at pH 7.4 by turbidimetric assay; type: physicochemical
[6] = in vivo; settings: rat, po, 10 mg/kg

Chain of Phosphatidylinositol 4,5-bisphosphate 3-kinase catalytic subunit alpha isoform (P42336 whole entry, canonical isoform): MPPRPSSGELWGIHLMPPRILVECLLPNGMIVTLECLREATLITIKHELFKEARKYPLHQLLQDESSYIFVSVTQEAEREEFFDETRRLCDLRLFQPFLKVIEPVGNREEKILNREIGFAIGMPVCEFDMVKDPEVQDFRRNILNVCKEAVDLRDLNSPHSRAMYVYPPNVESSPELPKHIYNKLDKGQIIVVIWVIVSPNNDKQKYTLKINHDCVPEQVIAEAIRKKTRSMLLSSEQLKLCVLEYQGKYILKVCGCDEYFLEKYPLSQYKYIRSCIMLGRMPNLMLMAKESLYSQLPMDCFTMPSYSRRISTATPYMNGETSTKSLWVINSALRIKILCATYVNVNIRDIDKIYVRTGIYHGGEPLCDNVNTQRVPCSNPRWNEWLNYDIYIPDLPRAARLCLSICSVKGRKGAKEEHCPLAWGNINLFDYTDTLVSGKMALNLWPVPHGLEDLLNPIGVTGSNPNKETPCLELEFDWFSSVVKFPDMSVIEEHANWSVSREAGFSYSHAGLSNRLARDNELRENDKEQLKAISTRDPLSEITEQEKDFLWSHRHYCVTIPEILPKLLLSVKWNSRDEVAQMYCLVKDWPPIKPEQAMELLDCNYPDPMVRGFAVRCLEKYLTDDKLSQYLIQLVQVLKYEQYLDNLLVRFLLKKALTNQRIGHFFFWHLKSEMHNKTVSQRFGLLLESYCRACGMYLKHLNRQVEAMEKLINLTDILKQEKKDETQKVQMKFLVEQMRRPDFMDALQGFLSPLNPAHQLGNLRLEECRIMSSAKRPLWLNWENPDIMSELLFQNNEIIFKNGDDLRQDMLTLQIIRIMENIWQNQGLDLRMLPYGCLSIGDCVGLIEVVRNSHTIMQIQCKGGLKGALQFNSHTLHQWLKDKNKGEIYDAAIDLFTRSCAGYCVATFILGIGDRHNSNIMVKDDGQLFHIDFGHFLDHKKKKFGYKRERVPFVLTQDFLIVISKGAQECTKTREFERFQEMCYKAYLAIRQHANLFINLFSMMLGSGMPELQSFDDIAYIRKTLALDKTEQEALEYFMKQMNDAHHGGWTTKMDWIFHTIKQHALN

SMILES | IC50 [1] | remaining at 0.5 h, 10 µM [2] | bioavailability [3] | remaining at 0.5 h, 10 µM [4] | solubility kinetic [5] | bioavailability [6]
c1cc2nc(-c3ccc4cn[nH]c4c3)nc(N3CCOCC3)c2s1 | 2.45 µM |  |  |  |  | 
Oc1cccc(-c2nc(N3CCOCC3)c3sccc3n2)c1 |  | 32% |  | 25% |  | 
Cc1csc2c(N3CCOCC3)nc(-c3cccc(O)c3)nc12 | 0.021 µM | 51% |  | 5% |  | 
OCCN1CCN(Cc2cc3nc(-c4cccc(O)c4)nc(N4CCOCC4)c3s2)CC1 |  | 90% | 7% | 90% | > 100 µM | 0%
CN1CCN(Cc2cc3nc(-c4cccc(O)c4)nc(N4CCOCC4)c3s2)CC1 |  | 85% | 10% | 85% | > 100 µM | 2%
CN1CCN(Cc2cc3nc(-c4cccc5[nH]ncc45)nc(N4CCOCC4)c3s2)CC1 |  | 81% | 31% | 81% |  | 37%

The next lines start with the values.

IC50 [1] | remaining at 0.5 h, 10 µM [2] | bioavailability [3] | remaining at 0.5 h, 10 µM [4] | solubility kinetic [5] | bioavailability [6] | SMILES
 | 74% | 11% | 32% |  |  | CN(C)Cc1cc2nc(-c3cccc(O)c3)nc(N3CCOCC3)c2s1
 | 57% |  | 13% | > 100 µM |  | COCCN(C)Cc1cc2nc(-c3cccc(O)c3)nc(N3CCOCC3)c2s1
 |  |  | 64% |  |  | Cc1cc2nc(-c3cccc(O)c3)nc(N3CCOCC3)c2s1
